Data on 18 molecules can be found in paper PMC4569058, “High-Throughput Screening for Ligands of the HEPN Domain of Sacsin” (PLoS ONE, 2015).

Common to all, as to type: binding
Experiment [1] concerns the target T1, HEPN domain of sacsin (GST-HEPN) (Homo sapiens, UniProt Q9NZJ4).
T1 construct: The HEPN domain (residues 4441–4579) was purified as in Kozlov et al; made in house; host or cells: E. coli BL21
T1 sequence (Q9NZJ4 4441-4579): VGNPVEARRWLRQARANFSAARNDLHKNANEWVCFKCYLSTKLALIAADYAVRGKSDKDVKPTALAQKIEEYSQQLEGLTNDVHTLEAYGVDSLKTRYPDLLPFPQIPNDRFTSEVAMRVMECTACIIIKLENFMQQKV
Description: FP competition assay (displacement of F12-ATP from GST-HEPN). On the procedure: […] The probe concentration was chosen to be the minimum concentration required to generate a sigmoidal binding curve. […] Next, a serial dilution of the competitor compounds (nucleotides and nucleotide analogs) starting at 10 mM were added. The fluorescence polarization signal in each well was measured on a SpectraMax M5e Microplate Reader.

Experiment [2] addresses T2, 15N-HEPN (sacsin HEPN domain) (Homo sapiens, UniProt Q9NZJ4).
T2 construct: The HEPN domain (residues 4441–4579) was purified as in Kozlov et al; GST (N, cleaved yes); made in house; host or cells: E. coli BL21 (M9 minimal medium with 15NH4Cl)
T2 sequence (Q9NZJ4 4441-4579): T1 sequence (Q9NZJ4 4441-4579)
Description: 1H-15N HSQC NMR titration. The following applies: 100-400 μM 15N-HEPN, 20 mM Bis-tris pH 6.50, 70 mM NaCl, 303 K. On the procedure:
Between 100 μM and 400 μM ^15N-HEPN were used for NMR titration experiments. Heteronuclear single quantum correlation (HSQC) spectra were acquired in 20 mM Bis-tris pH 6.50 and 70 mM NaCl at 303 K using Varian 800 MHz or Bruker 600 MHz NMR spectrometers. The data were processed by NMRPipe. NMR spectra were then generated and analyzed by NMRView. The 2D HSQC spectra were overlaid with previously assigned spectrum of HEPN. The combined chemical shift perturbations in the ^1H and ^15N dimensions of each peak, calculated as (ΔδH ^2 + (0.2 × ΔδN)^2)^0.5, were plotted against the residue number.

Experiment [3] has as its target T1, HEPN domain of sacsin (GST-HEPN). Kind of experiment: FP titration assay (fluorescent ATP probe vs GST-HEPN). The following applies: for pKd: 20 mM Bis-tris pH 6.50, 100 mM NaCl. The procedure:
N-methylanthraniloyl 8[(4-amino)butyl]-amino-ATP (MABA-ATP) and fluorescein-12-ATP (F12-ATP) were purchased from Jena Bioscience and PerkinElmer, respectively. The excitation and emission wavelengths of MABA-ATP were reported to be 335 nm and 440 nm, and those of F12-ATP were reported to be 496 nm and 517 nm by the commercial suppliers. The optimal excitation and emission wavelengths were determined under FP assay conditions using 0.2 μM MABA-ATP and 3.3 nM F12-ATP in 100 mM NaCl, 20 mM Bis-tris, pH 6.5.
(§1) A fixed concentration of the probe (0.5 μM MABA-ATP or 5 nM F12-ATP) was put in each well followed by a serial dilution of GST-HEPN starting at 10 μM. The assay was conducted in 20 mM Bis-tris pH 6.50 and 100 mM NaCl and the final volume in each well was 100 μl. The total fluorescence and fluorescence polarization signals of each well were recorded on a SpectraMax M5e Microplate Reader at the optimal excitation and emission wavelengths of the probes. A titration curve was generated by plotting the fluorescence polarization signals as milli-polarization units (mP) against a log scale of GST-HEPN concentration (μM).

The target of the next experiment is GST (Schistosoma japonicum, UniProt P08515). Kind of experiment: GST control FP titration. To be noted: 0.5 μM MABA-ATP or 5 nM F12-ATP titrated against GST. The procedure:
as §1
Supplementary file pone.0137298.s002.tif: S2 Fig GST control titration. 0.5 μM MABA-ATP and 5 nM F12-ATP were titrated against various concentrations of GST to verify whether GST contributes to the observed FP signal in the presence of GST-HEPN. […] (TIF) Click here for additional data file.

Setting [4] is: 5 nM F12-ATP and 120 nM GST-HEPN, read-out: affinity for GST-HEPN estimated from FP competition curve, Kd.
[5] abbreviates: HTS hit confirmation, 5 nM F12-ATP and 200 nM GST-HEPN, read-out: Binding Affinity for HEPN.

pKd: −log10 of the molar value. “And” between values parts separate entries of the source, which are not always exact repeats. Equal values may be shown once.

Sequence of GST (P08515 whole entry): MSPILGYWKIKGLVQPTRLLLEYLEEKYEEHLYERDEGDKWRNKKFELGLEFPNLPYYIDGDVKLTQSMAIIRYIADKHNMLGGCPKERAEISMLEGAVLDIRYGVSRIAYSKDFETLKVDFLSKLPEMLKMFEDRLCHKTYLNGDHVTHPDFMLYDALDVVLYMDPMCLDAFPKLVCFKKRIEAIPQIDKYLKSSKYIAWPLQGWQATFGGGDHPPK

`Nc1ncnc2c1ncn2[C@@H]1O[C@H](COP(=O)(O)OP(=O)(O)O)[C@@H](O)[C@H]1O` [ADP, adenosine 5´-diphosphate]: in experiment [1] (setting [4]), the pKd was 4.72. For `Nc1ncnc2c1ncn2C1OC(COP(=O)(O)OP(=O)(O)OCC2OC(O)C(O)C2O)C(O)C1O` (stereo not drawn) [ADP-ribose, adenosine 5´-diphosphoribose], the pKd in experiment [1] (setting [4]) is 3.69. For `O=C(OCCCl)Oc1c(Br)cc2sc(=O)oc2c1Br` [AG205], the pKd in experiment [1] (setting [5]) is 5.03. With `Cc1ccccc1NS(=O)(=O)c1ccc(NC(=O)c2n[nH]c([N+](=O)[O-])c2Br)cc1` [AK968], in experiment [1] (setting [5]), the pKd is 5.68. Besides, the “binding to HEPN observed by NMR (chemical shift perturbations)” value (shortened to “binding … (chemical shift perturbations)”) in experiment [2] was “Binding was observed by NMR”. In the case of `Nc1ncnc2c1ncn2[C@@H]1O[C@H](COP(=O)(O)O)[C@@H](O)[C@H]1O` [AMP, adenosine 5´-monophosphate], the pKd in experiment [1] (setting [4]) is 3.99.

In the case of `O=C(Nc1cccc2c(=O)[nH][nH]c(=O)c12)c1ccc(=O)oc1` [AN652], the pKd in experiment [1] (setting [5]) was 5.55. In addition, in experiment [2], the “binding … (chemical shift perturbations)” value is listed as “Binding was observed by NMR”. For `O=c1c(C(c2ccc3c(c2)OCO3)c2c(O)nc3n(c2=O)CCS3)c(O)nc2n1CCS2` [AN670], the “fold higher affinity than the other two HTS hits AK968 and AN652” value in experiment [1] was “two- to three-fold”. In addition, the pKd in experiment [1] (setting [5]) is 5.96. Also, the “binding … (chemical shift perturbations)” value in experiment [2] is “Binding was observed by NMR”.

Consider `Nc1ncnc2c1ncn2[C@@H]1O[C@H](COP(=O)(O)OP(=O)(O)OP(=O)(O)OC[C@H]2O[C@@H](n3cnc4c(N)ncnc43)[C@H](O)[C@@H]2O)[C@@H](O)[C@H]1O` [Ap3A, p1, p3-di(adenosine-5´) triphosphate], for which the pKd in experiment [1] (setting [4]) is 4.29. In the case of `Nc1ncnc2c1ncn2[C@@H]1O[C@H](COP(=O)(O)OP(=O)(O)OP(=O)(O)OP(=O)(O)OC[C@H]2O[C@@H](n3cnc4c(N)ncnc43)[C@H](O)[C@@H]2O)[C@@H](O)[C@H]1O` [Ap4A, p1,-p4-di(adenosine-5´) tetraphosphate], the pKd in experiment [1] (setting [4]) was 4.69. Turning to `CC(C)(COP(=O)(O)OP(=O)(O)OC[C@H]1O[C@@H](n2cnc3c(N)ncnc32)[C@H](O)[C@@H]1OP(=O)(O)O)[C@@H](O)C(=O)NCCC(=O)NCCS` [CoA, coenzyme A], the pKd in experiment [1] (setting [4]) was 5.28. As for `O=C(O)CN(CCN(CC(=O)O)CC(=O)O)CC(=O)O` [EDTA], the “fold weaker affinity than GTP” value in experiment [1] is reported as ~ 500 fold. Also, the pKd in experiment [1] (setting [4]) is ~3.29 and 3.29. The “binding … (chemical shift perturbations)” value in experiment [2] was “interacts with GTP- and malonate ion-binding site”. `Nc1nc2c(ncn2[C@@H]2O[C@H](COP(=O)(O)OP(=O)(O)OP(=O)(O)OP(=O)(O)O)[C@@H](O)[C@H]2O)c(=O)[nH]1` [G-tetra-P, guanosine 5´-tetraphosphate]: the “fold higher affinity for HEPN than GTP” value in experiment [1] is on record as “about two-fold”. Moreover, the pKd in experiment [1] (setting [4]) was 6.33. Also, in experiment [2], the “binding … (chemical shift perturbations)” value is given as “Changes in chemical shifts were observed for most GTP-binding residues”.

Turning to `Nc1nc2c(ncn2[C@@H]2O[C@H](COP(=O)(O)OP(=O)(O)O)[C@@H](O)[C@H]2O)c(=O)[nH]1` [GDP, guanosine 5´-diphosphate], the pKd in experiment [1] (setting [4]) is 5.91. On to `Nc1nc2c(ncn2[C@@H]2O[C@H](COP(=O)(O)OP(=O)(O)OP(=O)(O)O)[C@@H](O)[C@H]2O)c(=O)[nH]1` [GTP, guanosine 5´-triphosphate], for which the “fold higher affinity relative to ATP” value in experiment [1] was “approximately 6 fold”. The pKd in experiment [1] (setting [4]) was 6.09. Moreover, in experiment [2], the “binding … (chemical shift perturbations)” value is reported as “binds to HEPN at its dimerization surface”. As for `Nc1nc2c(ncn2[C@@H]2O[C@H](COP(=O)(O)OP(=O)(O)OP(=O)(O)OP(=O)(O)OC[C@H]3O[C@@H](n4cnc5c(=O)[nH]c(N)nc54)[C@H](O)[C@@H]3O)[C@@H](O)[C@H]2O)c(=O)[nH]1` [Gp4G, p1, p4-di(guanosine-5´) tetraphosphate], in experiment [1] (setting [4]), the pKd was 5.91. On the same count and under the same terms, in the case of `O=P(O)(O)OC1C(OP(=O)(O)O)C(OP(=O)(O)O)C(OP(=O)(O)O)C(OP(=O)(O)O)C1OP(=O)(O)O` (stereo not drawn) [IP6, phytic acid/myo-inositol hexakis(dihydrogen phosphate)] it was 5.07. With `CNc1ccccc1C(=O)NCCCCNc1nc2c(N)ncnc2n1[C@@H]1O[C@H](COP(=O)(O)OP(=O)(O)OP(=O)(O)O)[C@@H](O)[C@H]1O` [MABA-ATP, N-methylanthraniloyl 8[(4-amino)butyl]-amino-ATP], the pKd in experiment [3] (0.5 μM MABA-ATP titrated against GST-HEPN, read-out: binding affinity of the probe estimated from the titration curve) was ~5.52 and 5.52. For the same molecule, the “binding of probe to GST alone” value on GST is “did not show binding”.

For the molecule fluorescein-12-ATP [F12-ATP], the pKd in experiment [3] (5 nM F12-ATP titrated against GST-HEPN, read-out: binding affinity of the probe estimated from the titration curve (KD1)) was 7.11 and ~7.11. In experiment [3] (F12-ATP vs GST-HEPN titration in the presence of 1 mM MgCl2 compared to without MgCl2), the “fold decrease in affinity upon the addition of MgCl2” value is listed as 10 fold. In experiment [1], the “fold higher affinity relative to ATP” value is reported as 65 fold. Further, the “binding of probe to GST alone” value on GST is “did not show binding”. Moreover, in experiment [2], the “binding … (chemical shift perturbations)” value was “interacts with all HEPN residues involved in GTP-binding”.
